Reference: patent US20240426776A1, “RAPID DIFFERENTIATION OF ANTIBIOTIC-SUSCEPTIBLE AND -RESISTANT BACTERIA THROUGH MEDIATED EXTRACELLULAR ELECTRON TRANSFER” (priority 2021, published 2024)
Converted amounts (≈) assume the structure as drawn. “And” between values parts separate entries of the source, which are not always exact repeats. Equal values may be shown once. Read-outs that look alike come from different tables or passages of the source.

Experiments:
[1] = system: Acinetobacter baumannii (strains 35, 78, 83, and 102); experiment: Microdilution antibiotic susceptibility assay (MIC, CLSI guidelines); format: cell-based; details: for MIC: Acinetobacter baumannii, MH media, 16-18 h, 37° C., read-out: estimated minimum inhibitory concentration from this study
Procedure: (§1) Testing for S. aureus susceptibility to oxacillin differed with incubation at 30° C. for 18-24 h in MH media supplemented with 2% NaCl.
(§2) Values listed in Table 2 below include the estimated minimum inhibitory concentration from this study (μg/mL), the determination of(S) sensitive or (R) resistant microbes according to CLSI criteria, and the CLSI guidelines (μg/mL) for the species being tested. Empty cells were not evaluated.

[2] = system: Escherichia coli (strains 61 and 77); experiment: as above; format: cell-based; details: for MIC: Escherichia coli, MH media, 16-18 h, 37° C., read-out: estimated minimum inhibitory concentration from this study
Procedure: as §1, §2

[3] = system: Staphylococcus aureus (strains 29213 and 43300); experiment: as above; format: cell-based; details: for MIC: Staphylococcus aureus, MH media, oxacillin: 30° C., 18-24 h, 2% NaCl, read-out: estimated minimum inhibitory concentration from this study
Procedure: as §1, §2

[4] = system: Acinetobacter baumannii (strains 35, 78, 83, and 102); experiment: READAS electrochemical current response with PMS mediator (ASIn); format: cell-based; details: for ASIn (antibiotic susceptibility index), single replicates: ASI2, 15 μM PMS, 0.1 OD600
Procedure: (§3) For initial quality control, cyclic voltammetry scan was recorded from 0.5 V to −0.5 V then back to 0.5 V using the potentiostat 13 configuration. The potentiostat controls the working electrode voltage relative to the reference electrode.
(§4) For antibiotic susceptibility experiments, the working electrode 6 was controlled at 0 VAg/AgCl. The current can also be measured and analyzed for determining resistance/susceptibility of pathogens to drugs (e.g., antibiotics) using other devices such as a multiplexer or any interface instrument that can receive one or more data inputs and forward it to an output for analysis and feedback. In particular, such one or more data inputs can be directed to a processor, signal processor, computer-based system, etc. and thereafter/correspondingly any such interface instrument can receive instructions from, such processing instruments as better detailed in the description for the embodiment of FIG. 14 below. It is also to be noted that any induced currents undergo a decision methodology that can be interpreted by such a configured processor, signal processor, computer-based system, etc. for aiding in the determination of antibiotic susceptibility/resistance, such as, the methodology better detailed in the description of FIG. 6 below.
(§5) Turning back to the discussion for FIG. 1B but also FIG. 1A, an initial baseline was established in the MH media, PMS, and antibiotic mixture for 50-60 min before inoculating the electrochemical cell with a bacteria cell 2. On placing the bacteria cell 2 (again see FIG. 1A) into the electrochemical cell 10, the bacteria cell 2 undergoes metabolic reactions and generates electrons 4 through metabolic processes, as was generally described above. The electron transfer mediator used herein, e.g., PMS, thereafter, operates as an electron carrier in solution 3, and provides generated electrons 4 to the working electrode 6 (herein was aided by stirring mechanism 21, as shown in FIG. 1B). The working electrode 6 thus accepts the electrons provided by the reduced mediators (PMSr) so as to generate currents and returns the mediator back to its oxidized form ([…]) to keep the monitoring of respiration induced currents if viable.
(§6) Tests disclosed in the example embodiments herein for the purpose of illustration were conducted with an inoculum of 0.1 OD600. A cell density equating to 0.1 OD600 was determined for each species by serial dilution. Briefly, overnight cultures were adjusted to an OD600 of 0.1 and then serially diluted (10^0 to 10^−11) in a multi-well plate before transferring 10 μL of each dilution to separate TSA plates and grown overnight for 16-18 h. The colony forming units per mL (CFU/mL) were quantified using a drop plate method as known to those skilled in the art. Each measurement was replicated at least four times.
(§7) For performing example experimental tests disclosed in the embodiments herein for further reduction to practice, an overnight culture of the bacteria utilized was prepared. Such a culture was prepared by transferring, for example, two colonies from an agar streak plate into 8-ml MH broth and cultured overnight in an air incubator (37° C.) rotating at 120 rpm for 16-18 h. A 5-ml aliquot of culture was adjusted to 0.5 OD600 with fresh MH media and then centrifuged at 6000 rpm (4185×g) for 8 min and the supernatant decanted. The pellet was then resuspended in 5-mL of 30° C. (S. aureus experiments) or 37° C. (all others) MH media. After resuspension, 2 mL of the culture was used to verify optical density. Finally, 500 μL of the culture was inoculated to the electrochemical cuvettes by pipette through the cap inoculation port (2.5-ml final volume in the cuvette).
It is to be noted that a CLSI resistance breakpoint concentration is a defined concentration of a susceptible antibiotic that treats the bacteria. […]

[5] = system: Escherichia coli (strains 61 and 77); experiment: as above; format: cell-based; details: for ASIn (antibiotic susceptibility index), single replicates: ASI2, 15 μM PMS, 0.1 OD600
Procedure: as §3, §4, §5, §6, §7
The magnitude of the current response was defined as the current magnitude at the inflection point between the exponential growth and the saturated current response.

[6] = system: Staphylococcus aureus (strains 29213 and 43300); details: cited from earlier work
[7] = system: Klebsiella pneumoniae (strains 34 and 115); details: for ASIn (antibiotic susceptibility index), single replicates: imipenem 20× breakpoint (80 μg/mL), ASI20, 15 μM PMS, 0.1 OD600
Procedure: as §3, §4
Turning back to the discussion for FIG. 1B but also FIG. 1A, an initial baseline was established in the MH media, PMS, and antibiotic mixture for 50-60 min before inoculating the electrochemical cell with a bacteria cell 2. On placing the bacteria cell 2 (again see FIG. 1A) into the electrochemical cell 10, the bacteria cell 2 undergoes metabolic reactions and generates electrons 4 through metabolic processes, as was generally described above. […]
Tests disclosed in the example embodiments herein for the purpose of illustration were conducted with an inoculum of 0.1 OD600. A cell density equating to 0.1 OD600 was determined for each species by serial dilution. […] The colony forming units per mL (CFU/mL) were quantified using a drop plate method as known to those skilled in the art. […]

[8] = strain 78 (resistant), imipenem 2×CLSI resistance breakpoint
[9] = strain 102 (susceptible), imipenem 2×CLSI resistance breakpoint

NC[C@H]1O[C@H](O[C@H]2[C@H](O)[C@@H](O[C@H]3O[C@H](CO)[C@@H](O)[C@H](N)[C@H]3O)[C@H](N)C[C@@H]2N)[C@H](N)C[C@@H]1O [Tobramycin, tobramycin]
MIC ([1]; strain 35): 0.5 µg/mL (≈ 1.07 µM)
MIC ([1]; strain 83): 128 µg/mL (≈ 274 µM)
sensitive or resistant according to CLSI criteria ([1]; strain 35): S
sensitive or resistant according to CLSI criteria ([1]; strain 83): R
MIC ([2]; strain 61): 16 µg/mL (≈ 34.2 µM)
MIC ([2]; strain 77): 0.5 µg/mL (≈ 1.07 µM)
sensitive or resistant according to CLSI criteria ([2]; strain 61): R
sensitive or resistant according to CLSI criteria ([2]; strain 77): S
MIC ([3]; strain 29213): 1 µg/mL (≈ 2.14 µM)
MIC ([3]; strain 43300): 128 µg/mL (≈ 274 µM)
sensitive or resistant according to CLSI criteria ([3]; strain 29213): S
sensitive or resistant according to CLSI criteria ([3]; strain 43300): R
average ASI2 (average±SE) ([4]; strain 35 (susceptible), tobramycin 2×CLSI resistance breakpoint): 0.63±0.13
ASIn (antibiotic susceptibility index), single replicates ([4]; strain 35 (susceptible), tobramycin 2×CLSI resistance breakpoint (32 μg/mL)): 0.48 and 1 and 0.4 and 0.64
ASIn (antibiotic susceptibility index), single replicates ([4]; strain 35 (susceptible), tobramycin 2×CLSI resistance breakpoint (32 μg/mL), listed as tobramycin): 0.5
average ASI2 (average±SE) ([4]; strain 83 (resistant), tobramycin 2×CLSI resistance breakpoint): 0.08±0.06
ASIn (antibiotic susceptibility index), single replicates ([4]; strain 83 (resistant), tobramycin 2×CLSI resistance breakpoint (32 μg/mL)): −0.06 and −0.08 and 0.17 and 0.09 and 0.26
ASIn (antibiotic susceptibility index), single replicates ([4]; strain 83 (resistant), tobramycin 2×CLSI resistance breakpoint (32 μg/mL), listed as tobramycin): 0.3
decrease in current compared to the control ([4]; susceptible strain (35), tobramycin 2×CLSI resistance breakpoint, 32 μg/mL, FIG. 4A): 50%
average ASI2 (±SE) ([5]; strain 61 (resistant), tobramycin 2× (32 μg/mL)): 0.17±0.1
ASIn (antibiotic susceptibility index), single replicates ([5]; strain 61 (resistant), tobramycin 2× breakpoint (32 μg/mL)): 0.23 and 0.15 and 0.47 and 0.16 and −0.16
average ASI2 (±SE) ([5]; strain 77 (susceptible), tobramycin 2× (32 μg/mL)): 0.62±0.15
ASIn (antibiotic susceptibility index), single replicates ([5]; strain 77 (susceptible), tobramycin 2× breakpoint (32 μg/mL)): 0.92 and 0.4 and 0.86 and 0.33
CLSI guidelines (resistance breakpoint) for the species [6]: 16 µg/mL

C[C@@H](O)[C@H]1C(=O)N2C(C(=O)O)=C(SCCN=CN)C[C@H]12 [Imipenem, imipenem]
MIC ([1]; strain 78): 32 µg/mL (≈ 107 µM)
MIC ([1]; strain 102): 1 µg/mL (≈ 3.34 µM)
sensitive or resistant according to CLSI criteria ([1]; strain 78): R
sensitive or resistant according to CLSI criteria ([1]; strain 102): S
MIC ([2]; strain 61): 32 µg/mL (≈ 107 µM)
MIC ([2]; strain 77): 0.5 µg/mL (≈ 1.67 µM)
sensitive or resistant according to CLSI criteria ([2]; strain 61): R
sensitive or resistant according to CLSI criteria ([2]; strain 77): S
average ASI2 (average±SE) [4, 8]: 0.02±0.13
ASIn (antibiotic susceptibility index), single replicates [4, 8]: 0.04 and −0.5 and 0.24 and 0.19 and 0.16
average ASI2 (average±SE) [4, 9]: 0.47±0.08
ASIn (antibiotic susceptibility index), single replicates [4, 9]: 0.37 and 0.36 and 0.67 and 0.31 and 0.65
average ASI2 (±SE) ([5]; strain 61 (resistant), imipenem 2× (8 μg/mL)): −0.20±0.45
ASIn (antibiotic susceptibility index), single replicates ([5]; strain 61 (resistant), imipenem 2× breakpoint (8 μg/mL)): 0.26 and −1.52 and 0.52 and −0.08
average ASI2 (±SE) ([5]; strain 77 (susceptible), imipenem 2× (8 μg/mL)): 0.86±0.11
ASIn (antibiotic susceptibility index), single replicates ([5]; strain 77 (susceptible), imipenem 2× breakpoint (8 μg/mL)): 0.98 and 0.97 and 0.96 and 0.54
ASIn (antibiotic susceptibility index), single replicates ([7]; strain 34 (susceptible)): 0.56 and 0.88 and 0.67 and 0.58
average ASI20 (±SE) ([7]; strain 115 (resistant), imipenem 20× (80 μg/mL)): 0.28±0.08
ASIn (antibiotic susceptibility index), single replicates ([7]; strain 115 (resistant)): 0.32 and 0.47 and 0.18 and 0.17
